Data: paper PMC4501006, “Preliminary Characterization and In Vivo Studies of Structurally Identical ^18F- and ^125I-Labeled Benzyloxybenzenes for PET/SPECT Imaging of β-Amyloid Plaques” (Scientific Reports, 2015)

Tests used:
Aβ plaques = Aβ plaques (Homo sapiens, UniProt P05067); assay: Ex vivo autoradiography and brain radioactivity retention, Tg versus wild-type mouse; type: in vivo, Tg mouse (APPswe/PSEN1); details: 30 min post-injection
Protocol: To further characterize the in vivo Aβ imaging capabilities, we conducted ex vivo autoradiographic studies with [^125I]7a which combined high binding affinity, high initial brain uptake, fast clearance and excellent in vivo biostability in the brain. [^125I]7a (1 mCi, 200 μL) was injected intravenously into a Tg mouse (APPswe/PSEN1, male, 27 months old) and an age-matched wild-type mouse (C57BL6, male). Thirty minutes after injection, the brains were removed, weighed and the radioactivity was counted. Then the brains were frozen and sectioned for ex vivo autoradiography. […] Ex vivo autoradiography was performed on a transgenic mouse (APPswe/PSEN1, male, 27 months old) and a wild-type mouse (C57BL6, male, 27 months old). A saline solution (200 μL, 10% EtOH) of 1 mCi of [^125I]7a was injected into the mice via the tail vein. The mice were sacrificed by decapitation at 30 min post-injection, and the brains were immediately removed, weighed and the radioactivity was counted. Frozen brain sections of 20 μm were cut and exposed to a phosphorus plate (Perkin-Elmer, USA) for one week. Ex vivo autoradiographic images were obtained using a phosphor imaging system (Cyclone, Packard). Subsequently the same sections were stained with ThS to confirm the presence and location of Aβ plaques.

[1] = Dynamic microPET/CT imaging in normal ICR mice; type: in vivo; details: for brain radioactivity retention from PET time-activity curve: at 60 min; for muscle and bone uptake, standardized uptake value (SUV): entire 60 min PET scan
Protocol: To further assess the pharmacokinetics of these two couple of radiolabeled benzyloxybenzenes, following dynamic PET/CT and SPECT/CT scans were conducted in normal ICR mice. High contrast PET and SPECT images implied that all the four radiolabeled benzyloxybenzenes can penetrate the BBB to a great degree and washout from the normal brain regions (Fig. 7a). […] Sustained low muscle and bone uptakes were observed during the entire 60 min scans with standardized uptake values (SUV) of approximate 0.7. […] These PET imaging data well matched the in vivo biodistribution results.
Four normal ICR mice (20–22 g, male) were used for dynamic microPET/CT and microSPECT/CT imaging. The whole-body PET/CT scans were performed using Siemens Inveon device (Siemens Medical Solutions), while SPECT/CT scans were conducted with Mediso nanoScan SPECT/CT scanner (Mediso Medical Imaging System). All mice were anesthetized with 2% isoflurane. Dynamic PET and SPECT scans from 0 to 60 min were started immediately after intravenous injection of [^18F]7a (injected dose, 2.2 MBq), [^18F]12a (injected dose, 4.1 MBq), [^125I]7a (injected dose, 25 MBq), and [^125I]12a (injected dose, 48 MBq), respectively. PET images were reconstructed using three-dimensional ordered subsets expectation maximization (3D OSEM) algorithm, and 3D iterative algorithm was used for SPECT image reconstruction. Time frames for PET imaging were 20 × 60 s and 10 × 240 s, and that for SPECT imaging were 20 × 180 s. Regions of interests (ROIs) were manually drawn on the whole brain, heart, liver, muscle and bone using the CT templates and then transferred to corresponding coregistered PET images. SUVs, injected dose and body weight normalized and decay corrected radioactivity concentration, were calculated for all ROIs. TACs were calculated from this.

Aβ plaques, sequence (P05067 672-711 limits assumed): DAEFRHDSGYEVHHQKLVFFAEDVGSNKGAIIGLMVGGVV

SMILES | higher brain radioactivity retention in Tg mouse than in wild-type control mouse (Aβ plaques; i.v., 1 mCi) [%] | ex vivo autoradiography, labeling of Aβ plaques (Aβ plaques; Tg mouse brain sections) | brain uptake from PET time-activity curve ([1]; at 7 min) [% ID/g] | brain radioactivity retention from PET time-activity curve [1] [% ID/g] | muscle and bone uptake, standardized uptake value (SUV) [1] | brain uptake from PET time-activity curve ([1]; at 8 min) [% ID/g]
FCCOc1ccc(OCc2ccc([125I])cc2)cc1 [[^125I]7a] | 40 | clear labeling of Aβ plaques in the Tg mouse brain | – | – | – | –
[18F]CCOc1ccc(COc2ccc(I)cc2)cc1 [[^18F]12a] | – | – | 6.74 | 3.47 | ~0.7 | –
[18F]CCOc1ccc(OCc2ccc(I)cc2)cc1 [[^18F]7a] | – | – | – | 3.08 | ~0.7 | 5.96
